Data from ChEMBL document CHEMBL1201862, “PubChem BioAssay data set” (2004).
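Results reflect a 48-hour exposure of cells in 96-well plates to compound at five concentrations. GI50: concentration for 50% inhibition of growth.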 Activity calls are given as the source filed them. Rule as the data show it: active = GI50 up to about 1.1 µM and inactive = higher.

How the values were obtained:
Test in all cases: NCI tumour cell line growth inhibition, 48 h
LOX IMVI = system: LOX IMVI
RXF 393 = system: RXF 393
NCI-H522 = system: NCI-H522
MDA-MB-231 = system: MDA-MB-231
HCC 2998 = system: HCC 2998
K562 = system: K562
786-0 = system: 786-0
SN12C = system: SN12C
UO-31 = system: UO-31
SF-295 = system: SF-295
PC-3 = system: PC-3
HCT-116 = system: HCT-116
BT-549 = system: BT-549
OVCAR-5 = system: OVCAR-5
SK-MEL-28 = system: SK-MEL-28
HOP-92 = system: HOP-92
MOLT-4 = system: MOLT-4
SNB-75 = system: SNB-75
MCF7 = system: MCF7
OVCAR-3 = system: OVCAR-3
SF-539 = system: SF-539
OVCAR-4 = system: OVCAR-4
HCT-15 = system: HCT-15
T47D = system: T47D
DU-145 = system: DU-145
SNB-19 = system: SNB-19
NCI/ADR-RES = system: NCI/ADR-RES
A498 = system: A498
HOP-62 = system: HOP-62
CAKI-1 = system: CAKI-1
EKVX = system: EKVX
SK-OV-3 = system: SK-OV-3
IGROV-1 = system: IGROV-1
UACC-257 = system: UACC-257
UACC-62 = system: UACC-62
SW-620 = system: SW-620
U-251 = system: U-251
KM12 = system: KM12
NCI-H460 = system: NCI-H460
NCI-H226 = system: NCI-H226
ACHN = system: ACHN
SK-MEL-5 = system: SK-MEL-5
COLO 205 = system: COLO 205
Malme-3M = system: Malme-3M
M14 = system: M14
NCI-H23 = system: NCI-H23
SR = system: SR
CCRF-CEM = system: CCRF-CEM
HT-29 = system: HT-29
HL-60 = system: HL-60
MDA-MB-435 = system: MDA-MB-435
RPMI-8226 = system: RPMI-8226
Hs-578T = system: Hs-578T
OVCAR-8 = system: OVCAR-8
MDA-N = system: MDA-N
SF-268 = system: SF-268
SK-MEL-2 = system: SK-MEL-2
A549 = system: A549
TK-10 = system: TK-10

Cc1ccc(S(=O)(=O)NNC(=O)c2cc(C)c(C)cc2N)cc1
GI50 (LOX IMVI): > 100 µM (inactive)
GI50 (RXF 393): > 100 µM (inactive)
GI50 (NCI-H522): 47 µM (inactive)
GI50 (MDA-MB-231): > 100 µM (inactive)
GI50 (HCC 2998): > 100 µM (inactive)
GI50 (K562): > 100 µM (inactive)
GI50 (786-0): > 100 µM (inactive)
GI50 (SN12C): > 100 µM (inactive)
GI50 (UO-31): > 100 µM (inactive)
GI50 (SF-295): > 100 µM (inactive)
GI50 (PC-3): > 100 µM (inactive)
GI50 (HCT-116): > 100 µM (inactive)
GI50 (BT-549): > 100 µM (inactive)
GI50 (OVCAR-5): > 100 µM (inactive)
GI50 (SK-MEL-28): > 100 µM (inactive)
GI50 (HOP-92): > 100 µM (inactive)
GI50 (MOLT-4): 66.2 µM (inactive)
GI50 (SNB-75): > 100 µM (inactive)
GI50 (MCF7): > 100 µM (inactive)
GI50 (OVCAR-3): 94.2 µM (inactive)
GI50 (SF-539): > 100 µM (inactive)
GI50 (OVCAR-4): > 100 µM (inactive)
GI50 (HCT-15): > 100 µM
GI50 (T47D): 96.6 µM (inactive)
GI50 (DU-145): > 100 µM (inactive)
GI50 (SNB-19): > 100 µM (inactive)
GI50 (NCI/ADR-RES): > 100 µM (inactive)
GI50 (A498): > 100 µM (inactive)
GI50 (HOP-62): > 100 µM (inactive)
GI50 (CAKI-1): > 100 µM (inactive)
GI50 (EKVX): > 100 µM (inactive)
GI50 (SK-OV-3): > 100 µM (inactive)
GI50 (IGROV-1): > 100 µM (inactive)
GI50 (UACC-257): > 100 µM (inactive)
GI50 (UACC-62): > 100 µM (inactive)
GI50 (SW-620): > 100 µM (inactive)
GI50 (U-251): > 100 µM (inactive)
GI50 (KM12): > 100 µM (inactive)
GI50 (NCI-H460): > 100 µM (inactive)
GI50 (NCI-H226): > 100 µM (inactive)
GI50 (ACHN): > 100 µM (inactive)
GI50 (SK-MEL-5): > 100 µM (inactive)
GI50 (COLO 205): > 100 µM (inactive)
GI50 (Malme-3M): > 100 µM (inactive)
GI50 (M14): > 10 µM (inactive)
GI50 (NCI-H23): > 100 µM (inactive)
GI50 (SR): > 100 µM (inactive)
GI50 (CCRF-CEM): > 100 µM (inactive)
GI50 (HT-29): > 100 µM (inactive)
GI50 (HL-60): > 100 µM (inactive)
GI50 (MDA-MB-435): > 100 µM (inactive)
GI50 (RPMI-8226): > 100 µM (inactive)
GI50 (Hs-578T): 84.1 µM (inactive)
GI50 (OVCAR-8): 60.4 µM (inactive)
GI50 (MDA-N): > 100 µM (inactive)

CCOC(=O)c1ccc(NC(=O)O/N=C(/Cl)CC)cc1
GI50 (RXF 393): 16.9 µM (inactive)
GI50 (NCI-H522): 2.77 µM (inactive)
GI50 (MDA-MB-231): 19.6 µM (inactive)
GI50 (HCC 2998): 18.1 µM (inactive)
GI50 (K562): 1.94 µM (inactive)
GI50 (786-0): 5.85 µM (inactive)
GI50 (SN12C): 19.9 µM (inactive)
GI50 (UO-31): 17.5 µM (inactive)
GI50 (SF-295): 19.5 µM (inactive)
GI50 (PC-3): 18.8 µM (inactive)
GI50 (HCT-116): 8.99 µM (inactive)
GI50 (BT-549): 19.2 µM (inactive)
GI50 (OVCAR-5): 18.2 µM (inactive)
GI50 (SK-MEL-28): 16.4 µM (inactive)
GI50 (HOP-92): 2.75 µM (inactive)
GI50 (MOLT-4): 2 µM (inactive)
GI50 (SNB-75): 13.6 µM (inactive)
GI50 (MCF7): 15 µM (inactive)
GI50 (OVCAR-3): 1.83 µM (inactive)
GI50 (SF-539): 17.6 µM (inactive)
GI50 (OVCAR-4): 5.21 µM (inactive)
GI50 (HCT-15): 13.5 µM
GI50 (T47D): 7.73 µM (inactive)
GI50 (DU-145): 17.4 µM (inactive)
GI50 (SF-268): 19.2 µM (inactive)
GI50 (SNB-19): 21.3 µM (inactive)
GI50 (NCI/ADR-RES): 14 µM (inactive)
GI50 (A498): 15.7 µM (inactive)
GI50 (HOP-62): 20.4 µM (inactive)
GI50 (CAKI-1): 4.57 µM (inactive)
GI50 (EKVX): 16.1 µM (inactive)
GI50 (SK-OV-3): 17.9 µM (inactive)
GI50 (IGROV-1): 18.5 µM (inactive)
GI50 (UACC-257): 16.1 µM (inactive)
GI50 (UACC-62): 21 µM (inactive)
GI50 (SW-620): 1.87 µM (inactive)
GI50 (U-251): 17.8 µM (inactive)
GI50 (KM12): 18.4 µM (inactive)
GI50 (NCI-H460): 19.5 µM (inactive)
GI50 (NCI-H226): 20.9 µM (inactive)
GI50 (ACHN): 9.18 µM (inactive)
GI50 (SK-MEL-5): 16 µM (inactive)
GI50 (COLO 205): 2.41 µM (inactive)
GI50 (Malme-3M): 4.56 µM (inactive)
GI50 (M14): 2.14 µM (inactive)
GI50 (SK-MEL-2): 16.4 µM (inactive)
GI50 (NCI-H23): 17.4 µM (inactive)
GI50 (A549): 24.8 µM (inactive)
GI50 (SR): 3.57 µM (inactive)
GI50 (CCRF-CEM): 1.82 µM (inactive)
GI50 (HT-29): 18.4 µM (inactive)
GI50 (HL-60): 2.21 µM (inactive)
GI50 (MDA-MB-435): 17.7 µM (inactive)
GI50 (RPMI-8226): 1.99 µM (inactive)
GI50 (Hs-578T): 22.8 µM (inactive)
GI50 (OVCAR-8): 14.9 µM (inactive)
GI50 (MDA-N): 16.8 µM (inactive)

CC1=NN(C(=O)CC(=O)Nc2ccccc2Cl)C(=O)C1/N=N/c1ccc(C(=O)O)cc1 (stereo not drawn)
GI50 (LOX IMVI): 65.6 µM (inactive)
GI50 (RXF 393): > 100 µM (inactive)
GI50 (NCI-H522): > 100 µM (inactive)
GI50 (MDA-MB-231): > 100 µM (inactive)
GI50 (HCC 2998): > 100 µM (inactive)
GI50 (K562): > 100 µM (inactive)
GI50 (786-0): > 100 µM (inactive)
GI50 (SN12C): > 100 µM (inactive)
GI50 (UO-31): 62.8 µM (inactive)
GI50 (SF-295): > 100 µM (inactive)
GI50 (PC-3): > 100 µM (inactive)
GI50 (HCT-116): > 100 µM (inactive)
GI50 (BT-549): > 100 µM (inactive)
GI50 (OVCAR-5): > 100 µM (inactive)
GI50 (SK-MEL-28): > 100 µM (inactive)
GI50 (HOP-92): 19.6 µM (inactive)
GI50 (MOLT-4): > 100 µM (inactive)
GI50 (MCF7): > 100 µM (inactive)
GI50 (OVCAR-3): > 100 µM (inactive)
GI50 (SF-539): > 100 µM (inactive)
GI50 (OVCAR-4): > 100 µM (inactive)
GI50 (HCT-15): > 100 µM
GI50 (T47D): 53.2 µM (inactive)
GI50 (DU-145): > 100 µM (inactive)
GI50 (SF-268): > 100 µM (inactive)
GI50 (SNB-19): > 100 µM (inactive)
GI50 (NCI/ADR-RES): > 100 µM (inactive)
GI50 (A498): > 100 µM (inactive)
GI50 (HOP-62): > 100 µM (inactive)
GI50 (CAKI-1): > 100 µM (inactive)
GI50 (TK-10): > 100 µM (inactive)
GI50 (EKVX): 4.46 µM (inactive)
GI50 (IGROV-1): > 100 µM (inactive)
GI50 (UACC-257): > 100 µM (inactive)
GI50 (UACC-62): > 100 µM (inactive)
GI50 (SW-620): > 100 µM (inactive)
GI50 (U-251): > 100 µM (inactive)
GI50 (KM12): > 100 µM (inactive)
GI50 (NCI-H460): > 100 µM (inactive)
GI50 (ACHN): > 100 µM (inactive)
GI50 (SK-MEL-5): > 100 µM (inactive)
GI50 (COLO 205): > 100 µM (inactive)
GI50 (Malme-3M): > 100 µM (inactive)
GI50 (M14): > 100 µM (inactive)
GI50 (SK-MEL-2): > 100 µM (inactive)
GI50 (NCI-H23): > 100 µM (inactive)
GI50 (A549): > 100 µM (inactive)
GI50 (SR): 51.1 µM (inactive)
GI50 (CCRF-CEM): > 100 µM (inactive)
GI50 (HT-29): 7.73 µM (inactive)
GI50 (HL-60): > 100 µM (inactive)
GI50 (MDA-MB-435): > 100 µM (inactive)
GI50 (RPMI-8226): > 100 µM (inactive)
GI50 (Hs-578T): > 100 µM (inactive)
GI50 (OVCAR-8): > 100 µM (inactive)
GI50 (MDA-N): > 100 µM (inactive)
